IC50 data for 26 compounds are collected here from US11332459B2 (TEIJIN PHARMA LIMITED, priority 2017, dated 2022).

Molecules are shown by their SMILES. Bounds are passed on as bounds.

In the assay the target is T1, human TRPC6 (Homo sapiens, UniProt Q9Y210).
T1 construct: expressed in transfected cells
T1 sequence (Q9Y210 1-931): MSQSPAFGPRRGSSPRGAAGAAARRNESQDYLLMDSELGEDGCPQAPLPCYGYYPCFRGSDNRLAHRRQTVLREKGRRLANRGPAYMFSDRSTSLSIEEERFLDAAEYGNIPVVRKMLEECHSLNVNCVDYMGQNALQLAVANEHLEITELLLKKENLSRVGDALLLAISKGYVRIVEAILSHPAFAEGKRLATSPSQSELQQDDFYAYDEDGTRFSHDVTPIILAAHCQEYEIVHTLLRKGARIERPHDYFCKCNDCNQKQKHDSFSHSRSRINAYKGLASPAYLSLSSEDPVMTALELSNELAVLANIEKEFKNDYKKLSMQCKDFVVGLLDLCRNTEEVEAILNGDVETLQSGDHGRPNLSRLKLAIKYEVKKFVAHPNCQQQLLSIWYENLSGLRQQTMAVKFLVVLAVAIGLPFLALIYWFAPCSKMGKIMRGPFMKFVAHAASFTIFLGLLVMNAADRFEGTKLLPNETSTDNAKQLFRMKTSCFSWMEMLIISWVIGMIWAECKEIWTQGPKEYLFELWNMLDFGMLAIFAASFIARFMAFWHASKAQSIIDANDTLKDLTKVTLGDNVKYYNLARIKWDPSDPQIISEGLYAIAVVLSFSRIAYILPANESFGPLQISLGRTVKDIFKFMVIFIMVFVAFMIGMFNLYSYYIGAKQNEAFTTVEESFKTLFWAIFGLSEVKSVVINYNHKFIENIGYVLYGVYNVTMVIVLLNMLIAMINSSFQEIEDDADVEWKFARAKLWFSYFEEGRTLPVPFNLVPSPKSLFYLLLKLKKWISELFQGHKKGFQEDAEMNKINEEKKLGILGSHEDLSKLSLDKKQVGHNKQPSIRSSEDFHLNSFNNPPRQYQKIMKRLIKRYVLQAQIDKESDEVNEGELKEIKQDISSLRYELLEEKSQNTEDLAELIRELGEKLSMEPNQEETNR
Briefly: TRPC6 calcium flux assay (FLIPR, OAG-stimulated calcium influx). It counts as cell-based. To be noted: HEK293 cells stably transfected with human TRPC6, read-out: hTRPC6 Potency. The method in brief:
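HEK293 cells stably expressing human TRPC6, loaded with calcium dye 90–120 min at RT, then given compound for 25 min before OAG (50 uM final, 0.5% DMSO) in HEPES buffer pH 7.2 with 2 mM CaCl2. Background-subtracted FLIPR peak over 180 s normalized to OAG vs buffer; IC50 from dose plot.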
A general note: Calcium assays in cells follow changes in intracellular calcium, usually with a dye or a luminescent sensor.
Turning to `COc1cc(F)cc2nc(N3CC[C@@H](F)[C@H](N)C3)n(CC(=O)N3CCOCC3)c12` [Example 546, 2-(2-((3R,4R)-3-amino-4-fluoropiperidin-1-yl)-5-fluoro-7-methoxy-1H-benzo[d]imidazol-1-yl)-1-morpholinoethan-1-one], the IC50 is above 3.75 µM.

Turning to `N[C@@H]1CN(c2nc3cc(F)c(F)cc3n2[C@@H]2CCN(C3CC3)C2=O)CC[C@H]1F` [Example 547, (R)-3-(2-((3R,4R)-3-amino-4-fluoropiperidin-1-yl)-5,6-difluoro-1H-benzo[d]imidazol-1-yl)-1-cyclopropylpyrrolidin-2-one], the IC50 came to 0.0437 µM.

As for `N[C@@H]1CN(c2nc3cc(F)c(F)cc3n2[C@H]2CCN(C3CCOCC3)C2=O)CC[C@H]1F` [Example 548, (S)-3-(2-((3R,4R)-3-amino-4-fluoropiperidin-1-yl)-5,6-difluoro-1H-benzo[d]imidazol-1-yl)-1-(tetrahydro-2H-pyran-4-yl)pyrrolidin-2-one], the IC50 is 0.382 µM.

Consider `N[C@@H]1CN(c2nc3cc(F)c(F)cc3n2[C@H]2CCN(C3CC3)C2=O)CC[C@H]1F` [Example 549, (S)-3-(2-((3R,4R)-3-amino-4-fluoropiperidin-1-yl)-5,6-difluoro-1H-benzo[d]imidazol-1-yl)-1-cyclopropylpyrrolidin-2-one], for which the IC50 was found to be 0.41 µM.

For the compound `N[C@@H]1CN(c2nc3cc(F)c(F)cc3n2[C@@H]2CCN(C3CCOCC3)C2=O)CC[C@H]1F` [Example 550, (R)-3-(2-((3R,4R)-3-amino-4-fluoropiperidin-1-yl)-5,6-difluoro-1H-benzo[d]imidazol-1-yl)-1-(tetrahydro-2H-pyran-4-yl)pyrrolidin-2-one], the IC50 was above 3.75 µM.

For `Cc1cnc(Cn2c(N3CC[C@@H](F)[C@H](N)C3)nc3cc(F)c(F)cc32)s1` [Example 551, (3R,4R)-1-(5,6-difluoro-1-((5-methylthiazol-2-yl)methyl)-1H-benzo[d]imidazol-2-yl)-4-fluoropiperidin-3-amine], the IC50 came out at 0.0061 µM.

Turning to `Cc1nnc(Cn2c(N3CC[C@@H](F)[C@H](N)C3)nc3c(F)cc(F)cc32)s1` [Example 552, (3R,4R)-1-(4,6-difluoro-1-((5-methyl-1,3,4-thiadiazol-2-yl)methyl)-1H-benzo[d]imidazol-2-yl)-4-fluoropiperidin-3-amine], the IC50 turned out to be 0.00651 µM.

For `Cc1nnc(Cn2c(N3CC[C@@H](F)[C@H](N)C3)nc3cc(F)c(F)cc32)s1` [Example 553, (3R,4R)-1-(5,6-difluoro-1-((5-methyl-1,3,4-thiadiazol-2-yl)methyl)-1H-benzo[d]imidazol-2-yl)-4-fluoropiperidin-3-amine], the IC50 stood at 0.00669 µM.

Regarding `CN(CC(F)(F)F)C(=O)Cn1c(N2CC[C@@H](F)[C@H](N)C2)nc2ccc(C(F)(F)F)cc21` [Example 554, 2-(2-((3R,4R)-3-amino-4-fluoropiperidin-1-yl)-6-(trifluoromethyl)-1H-benzo[d]imidazol-1-yl)-N-methyl-N-(2,2,2-trifluoroethyl)acetamide], the IC50 is 0.0109 µM.

For `N[C@@H]1CN(c2nc3ncc(F)cc3n2Cc2ncc(Cl)cn2)CC[C@H]1F` [Example 555, (3R,4R)-1-(1-((5-chloropyrimidin-2-yl)methyl)-6-fluoro-1H-imidazo[4,5-b]pyridin-2-yl)-4-fluoropiperidin-3-amine], the IC50 was found to be 0.0116 µM.

For `CS(=O)(=O)c1ccc(Cn2c(N3CC[C@@H](F)[C@H](N)C3)nc3c(F)cc(F)cc32)nc1` [Example 556, (3R,4R)-1-(4,6-difluoro-1-((5-(methylsulfonyl)pyridin-2-yl)methyl)-1H-benzo[d]imidazol-2-yl)-4-fluoropiperidin-3-amine], the IC50 was determined as 0.0119 µM.

For the compound `N[C@@H]1CN(c2nc3c(F)cc(F)cc3n2Cc2nnc(C(F)F)s2)CC[C@H]1F` [Example 557, (3R,4R)-1-(1-((5-(difluoromethyl)-1,3,4-thiadiazol-2-yl)methyl)-4,6-difluoro-1H-benzo[d]imidazol-2-yl)-4-fluoropiperidin-3-amine], the IC50 came out at 0.0128 µM.

On to `CN(CC(F)(F)F)C(=O)Cn1c(N2CC[C@@H](F)[C@H](N)C2)nc2c(F)cc(F)cc21` [Example 558, 2-(2-((3R,4R)-3-amino-4-fluoropiperidin-1-yl)-4,6-difluoro-1H-benzo[d]imidazol-1-yl)-N-methyl-N-(2,2,2-trifluoroethyl)acetamide], for which the IC50 was 0.0161 µM.

Consider `CN(CC(F)(F)F)C(=O)Cn1c(N2CC[C@@H](F)[C@H](N)C2)nc2ccc(Cl)cc21` [Example 559, 2-(2-((3R,4R)-3-amino-4-fluoropiperidin-1-yl)-6-chloro-1H-benzo[d]imidazol-1-yl)-N-methyl-N-(2,2,2-trifluoroethyl)acetamide], for which the IC50 worked out at 0.0166 µM.

Regarding `N[C@@H]1CN(c2nc3cc(F)c(F)cc3n2Cc2nnc(C(F)F)s2)CC[C@H]1F` [Example 560, (3R,4R)-1-(1-((5-(difluoromethyl)-1,3,4-thiadiazol-2-yl)methyl)-5,6-difluoro-1H-benzo[d]imidazol-2-yl)-4-fluoropiperidin-3-amine], the IC50 stood at 0.0187 µM.

With `Cc1nnc(Cn2c(N3CC[C@@H](F)[C@H](N)C3)nc3ccc(F)cc32)s1` [Example 561, (3R,4R)-4-fluoro-1-(6-fluoro-1-((5-methyl-1,3,4-thiadiazol-2-yl)methyl)-1H-benzo[d]imidazol-2-yl)piperidin-3-amine], the IC50 was found to be 0.0198 µM.

In the case of `CS(=O)(=O)c1ccc(Cn2c(N3CC[C@@H](F)[C@H](N)C3)nc3cc(F)c(F)cc32)nc1` [Example 562, (3R,4R)-1-(5,6-difluoro-1-((5-(methylsulfonyl)pyridin-2-yl)methyl)-1H-benzo[d]imidazol-2-yl)-4-fluoropiperidin-3-amine], the IC50 amounted to 0.0208 µM.

`CN(C)C(=O)Cn1c(N2CC[C@@H](F)[C@H](N)C2)nc2ccc(C(F)(F)F)cc21` [Example 563, 2-(2-((3R,4R)-3-amino-4-fluoropiperidin-1-yl)-6-(trifluoromethyl)-1H-benzo[d]imidazol-1-yl)-N,N-dimethylacetamide]: the IC50 was found to be 0.0216 µM.

As to `Cc1cc(Cn2c(N3CC[C@@H](F)[C@H](N)C3)nc3cc(F)c(F)cc32)no1` [Example 564, (3R,4R)-1-(5,6-difluoro-1-((5-methylisoxazol-3-yl)methyl)-1H-benzo[d]imidazol-2-yl)-4-fluoropiperidin-3-amine], the IC50 stood at 0.0292 µM.

In the case of `CN(C)C(=O)Cn1c(N2CC[C@@H](F)[C@H](N)C2)nc2c(F)cc(F)cc21` [Example 565, 2-(2-((3R,4R)-3-amino-4-fluoropiperidin-1-yl)-4,6-difluoro-1H-benzo[d]imidazol-1-yl)-N,N-dimethylacetamide], the IC50 worked out at 0.0322 µM.

For the compound `CN(C)C(=O)Cn1c(N2CC[C@@H](F)[C@H](N)C2)nc2ccc(F)cc21` [Example 566, 2-(2-((3R,4R)-3-amino-4-fluoropiperidin-1-yl)-6-fluoro-1H-benzo[d]imidazol-1-yl)-N,N-dimethylacetamide], the IC50 stood at 0.0352 µM.

`Cc1cnc(Cn2c(N3CC[C@@H](F)[C@H](N)C3)nc3cc(F)c(F)cc32)o1` [Example 567, (3R,4R)-1-(5,6-difluoro-1-((5-methyloxazol-2-yl)methyl)-1H-benzo[d]imidazol-2-yl)-4-fluoropiperidin-3-amine]: the IC50 turned out to be 0.0398 µM.

Consider `Cc1csc(Cn2c(N3CC[C@@H](F)[C@H](N)C3)nc3cc(F)c(F)cc32)n1` [Example 568, (3R,4R)-1-(5,6-difluoro-1-((4-methylthiazol-2-yl)methyl)-1H-benzo[d]imidazol-2-yl)-4-fluoropiperidin-3-amine], for which the IC50 came to 0.0481 µM.

As to `N[C@@H]1CN(c2nc3ccc(F)cc3n2Cc2nc(C(F)(F)F)no2)CC[C@H]1F` [Example 569, (3R,4R)-4-fluoro-1-(6-fluoro-1-((3-(trifluoromethyl)-1,2,4-oxadiazol-5-yl)methyl)-1H-benzo[d]imidazol-2-yl)piperidin-3-amine], the IC50 turned out to be 0.0784 µM.

As to `CN(CC(F)(F)F)C(=O)Cn1c(N2CC[C@@H](F)[C@H](N)C2)nc2cc(Cl)ccc21` [Example 570, 2-(2-((3R,4R)-3-amino-4-fluoropiperidin-1-yl)-5-chloro-1H-benzo[d]imidazol-1-yl)-N-methyl-N-(2,2,2-trifluoroethyl)acetamide], the IC50 was found to be 0.0854 µM.

As to `Cc1nnc(Cn2c(N3CC[C@@H](F)[C@H](N)C3)nc3cc(F)c(F)cc32)o1` [Example 571, (3R,4R)-1-(5,6-difluoro-1-((5-methyl-1,3,4-oxadiazol-2-yl)methyl)-1H-benzo[d]imidazol-2-yl)-4-fluoropiperidin-3-amine], the IC50 stood at 0.0932 µM.
